In patent publication US7491793B2 (priority 2003, dated 2009):
“Also recorded” adds a separate entry of the source.

Columns and labels:
Lassa fever = conditions: only if administered early (up to six days) in the course of illness; cited from earlier work
[1] = tested on: SARS coronavirus strain Urbani; type: cell-based, SARS CoV strain Urbani or HK
[2] = tested on: mouse hepatitis virus strain A59; type: cell-based, Mouse hepatitis virus (MHV) strain A59
HIV-1 virion:cell fusion = conditions: read-out: concentration giving 50% inhibition of HIV-1 virion:cell fusion; cited from earlier work
HIV-1 = conditions: 100 mg/day, clinical trial, infected individuals; cited from earlier work

In the case of `NC(=O)c1ncn([C@@H]2O[C@H](CO)[C@@H](O)[C@H]2O)n1` [ribavirin], the “efficacy in the treatment of Lassa fever” value (Lassa fever) is listed as “effective”.

For “AACEVAKNLNESLIDLQELGKYEQYIKW [SEQ ID NO:29]”, the “inhibition of plaque formation by SARS CoV” value (from here on “inhibition … by SARS CoV”) [1] was “some inhibition”.

For “GYFVQDDGEWKFTGSSYYY [SEQ ID NO:23, synthetic peptide from the MHV FIR]”, the “inhibition of plaque formation by MHV” value [2] was “can inhibit plaque formation by MHV”.

With “QDAIKKLNESYINLKEVGTYEMYVKW [SEQ ID NO:27, peptide from the carboxyl terminal helix of MHV S]” the “inhibition of plaque formation by MHV” value [2] was “some inhibition”.

With GYHLMSFPQAAPHGVVFLHVTY [SEQ ID NO:24] the “inhibition … by SARS CoV” value [1] was “inhibited plaque formation”.

In the case of GVFVFNGTSWFITQRNFFS [SEQ ID NO:25], the “inhibition … by SARS CoV” value [1] is reported as “inhibited plaque formation”.

In the case of enfuvirtide, the IC50 (HIV-1 virion:cell fusion) is given as 1.7 nM and the “reduction in plasma HIV-1 load” value (HIV-1) is given as “approximately 100 fold”.

In the case of MFPPWSAAAGVPFSLSVQY [SEQ ID NO:26], the “inhibition of plaque formation by MHV” value [2] is reported as “some inhibition”.

For MYKTPTLKYFGGFNFSQIL [SEQ ID NO:28], the “inhibition … by SARS CoV” value [1] was “some inhibition”.

With GNHILSLVQNAPYGLYFIHFSW [SEQ IDS NO:22] the “inhibition of plaque formation by MHV” value [2] was “can inhibit plaque formation by MHV; also recorded: more efficient”.
